Data on 4 compounds can be found in patent publication EP1210336B1, “SUBSTITUTED BENZIMIDAZOLES AS NON-NUCLEOSIDE INHIBITORS OF REVERSE TRANSCRIPTASE” (THE UNITED STATES OF AMERICA, as represented by the …, priority 1999, dated 2001).

One test deals with WT virus (NL4-3). Put plainly: microbe, parasite or virus in culture. The following applies: read-out: EC50. The format is cell-based, HIV-1. As for the experimental part: Evaluation of these compounds for the inhibition of HIV-1 was determined as the fifty percent cell culture inhibitory concentration (CIC50) in CEMSS cell culture with WT virus (NL4-3).
(§1) In this Example, the antiviral and cellular toxicity of NNRTIs was investigated, using the cytopathic cell killing assay described by Yang (Yang et al., "Characteristics of a Group of Non-nucleoside Reverse Transcriptase Inhibitors with Structural Diversity and Potent Anti-Human Immunodeficiency Virus Activity," Leukemia 9:S75-S85 [1995]). Briefly, in this method cells (e.g., the CEM-SS cell line, available from the NIAID AIDS Research and Reference Program [ARRRP]) were seeded at a density of 5 x 10^3 cells/well, into the wells of a 96-well microtiter plate. The cells were then infected with HIV virus (either mutant or WT), at a multiplicity of infection (MOI) previously determined to provide complete cell killing by 6 days of culture post-infection (e.g., MOI of 0.01-0.05). Each of the HIV isolates was pre-titered to induce equivalent levels of infection based on cell killing or virus production, prior to their use in these assays. A range of test compound concentrations was added to the wells in triplicate (e.g., serial half-log dilutions) to evaluate inhibition of HIV infection. Controls for each assay included drug controls (drug colorimetric control wells), drug cytotoxicity control wells (cells with drug), virus control wells (cells with virus), and cell viability controls (cells only). Positive control drugs (e.g., AZT and ddC) were also run in parallel.
(§2) After six days of incubation at 37°C, cell viability was determined spectrophotometrically at 450 nm for each well, using the metabolic reduction of XTT to a soluble colored formazan. (See, Gartner and Popovic, "Virus Isolation and Production, in Aldovini and Walker (eds.), Techniques in HIV Research, Stockton Press, NY, pp. […] [1991]; and Nara and Fischinger, "Quantitative Infectivity Assay for HIV-1 and HIV-2," Nature 332:469-470 [1988]).
(§3) The in vitro therapeutic index (TI50) was defined as the fold-difference between the EC50 and IC50. The results for the various compounds are included in Figures 8 and 19.

A further test relates to NL4-3 (WT). In words: Cytopathic cell killing assay, cross-resistance profile, infected MT-4 cells. It counts as cell-based, HIV-1.
From the text: (§4) The various HIV isolates tested in the Figures are those corresponding to wild-type virus (NL4-3) and the other strains listed by their RT mutations. The three 4xAZT isolates included in the Figures represent AZT drug-resistant variants. For example, the 4xAZT/L100I isolate has five mutations: four mutations confer increased resistance to AZT, and the other mutation is located within the NNRTI binding pocket. TZB and nevir. (nevirapine) are two well-known NNRTIs, included in this experiment for comparison purposes. […]
as §1, §2, §3

The next test deals with HIV-1 variant K101E. The test is described as above. The format is cell-based.
From the text: as §4, §1, §2, §3

Another test has as its system HIV-1 variant Y188C. The test is described as above. It counts as cell-based.
From the text: as §4, §1, §2, §3

The subject of a further test is HIV-1 variant K103N. The description is as above. The format is cell-based. The following applies: for EC50: isolate K103N.
From the text: as §4, §1, §2, §3

The next test relates to HIV-1 variant Y181C. The description is as above. Particulars: isolate Y181C. It counts as cell-based.
From the text: as §4, §1, §2, §3

In a further test the test system is HIV-1 variant V108I. The test is described as above. The format is cell-based.
From the text: as §4, §1, §2, §3

The next test deals with T1, HIV-1 WT RT (Human immunodeficiency virus type 1 group M subtype B, UniProt P03366).
T1 construct: purified RT protein (0.015 mg/mL) was incubated in a 100 µL reaction mixture
In words: biochemical. Particulars: for IC50: read-out: IC50.

In the next test the test system is HIV-1 variant V179D. In words: Cytopathic cell killing assay, cross-resistance profile, infected MT-4 cells. It counts as cell-based. Particulars: isolate V179D.
From the text: as §4, §1, §2, §3

For a further test, the system named is HIV-1 variant L100I. The description is as above. The format is cell-based.
From the text: as §4, §1, §2, §3

A further test has as its system HIV-1 variant V106A. Described as above. It counts as cell-based.
From the text: as §4, §1, §2, §3

A further test has as its system HIV-1 variant L74V. The description is as above. The format is cell-based.
From the text: as §4, §1, §2, §3

Another test concerns HIV-1 variant A98G. Described as above. It counts as cell-based.
From the text: as §4, §1, §2, §3

Test [1] has as its system HIV-1 isolate 4xAZT/Y181C. The test is described as above. It counts as cell-based. Particulars: isolate 4XAZT /Y181C.
From the text: as §4, §1, §2, §3

The subject of a further test is HIV-1 isolate 4xAZT. The test is described as above. The format is cell-based. Particulars: isolate 4XAZT.
From the text: as §4, §1, §2, §3

Setting [2] is: Table 11, CEMSS/NL4-3, NRVC = reduction in viral CPE not seen (footnote).
[3] abbreviates: Table 10 (values in µM), read-out: EC50.
Where [4] appears, read: Human immunodeficiency virus 1, NL43, CEM-SS, Table 11, CEMSS/NL4-3, NRVC = reduction in viral CPE not seen (footnote).
The mark [5] stands for this setting: Human immunodeficiency virus 1, MT4, Table 8.
[6] abbreviates: Human immunodeficiency virus 1, MT4, Table 9.
The mark [7] stands for this setting: Human immunodeficiency virus 1, MT4, Table 10 (values in µM).

Where “and” joins values, the source holds several entries; their conditions need not be identical. Identical values can stand only once. Like-named read-outs stand apart in the source and are kept apart here. Where only a bound is given, the exact number is not on record here.

For `[N-]=[N+]=NCc1cccc2c1nc(-c1c(F)cccc1F)n2Cc1c(F)cccc1F` [compound 70, 1-(2,6-difluorobenzyl)-2-(2,6-difluorophenyl)benzimidazol-4-yl-azidomethyl], the EC50 in the test on WT virus (NL4-3) (setting [2]) is 45 nM; in the test with NL4-3 (WT) (Table 10 (values in µM), isolate NL4-3 (WT), listed as CH2-N3, read-out: EC50), 0.045 µM and 0.06 µM; in the test with HIV-1 variant K101E (Table 10 (values in µM), isolate K101E, read-out: EC50) it was 0.6 µM; in the test on HIV-1 variant Y188C (Table 10 (values in µM), isolate Y188C, read-out: EC50), 0.22 µM; in the test with HIV-1 variant K103N (setting [3]) it was 1.48 µM; with HIV-1 variant Y181C (setting [3]), 0.82 µM. Also, the EC50 in the test with HIV-1 variant V108I (Table 10 (values in µM), isolate V108l, read-out: EC50) was determined as 0.026 µM.
“1-(2,6-difluorobenzyl)-2-(2,6-difluorophenyl)-4-acetamidobenzimidazole [compound 56]”: the concentration for a half-maximal effect (EC50) was 1480 nM in the test on WT virus (NL4-3) (Table 7, concentration reducing cell killing or virus production by 50%, HIV-1 WT); 1480 nM in the test on WT virus (NL4-3) (setting [2]); 1.6 µM in the test with NL4-3 (WT) (Table 8, isolate N1.43, read-out: EC50); 1.97 µM with NL4-3 (WT) (Table 10 (values in µM), isolate NL4-3 (WT), read-out: EC50); over 10000 nM in the test with HIV-1 variant V179D (Table 8, read-out: EC50); 2.1 µM with HIV-1 variant L100I (Table 8, isolate 1.1001, read-out: EC50). The half-maximal effective concentration (EC50) was 3.25 µM with HIV-1 variant L100I (Table 10 (values in µM), isolate L1001, read-out: EC50); over 20 µM with HIV-1 variant K101E (Table 8, isolate K101E, read-out: EC50); over 10 µM in the test with HIV-1 variant Y188C (Table 8, isolate Y 188C, read-out: EC50); over 20 µM in the test with HIV-1 variant K103N (Table 8, read-out: EC50); over 100 µM in the test on HIV-1 variant K103N (setting [3]); over 20000 nM in the test with HIV-1 variant V106A (Table 8, isolate V 106A, read-out: EC50). Also, the EC50 in the test with HIV-1 variant L74V (Table 8, isolate 1.74V, read-out: EC50) is 1200 nM; with HIV-1 variant Y181C (setting [3]) it was over 100 µM; in the test with HIV-1 variant V108I (Table 8, isolate V1081, read-out: EC50), 5.3 µM; with HIV-1 variant A98G (Table 8, isolate A9SG, read-out: EC50), 4300 nM. Besides, the concentration for half-maximal inhibition (IC50) on HIV-1 WT RT (Table 7, HIV-1 WT RT) amounted to 54700 nM; on HIV-1 WT RT (Table 11, WT RT), 54700 nM. The “%inhibn (1µM)” value at HIV-1 WT RT (Table 7, WT HIV-1 RT, 1 µM drug) came to 24%.
Take `Cc1ccnc2c1NC(=O)c1cccnc1N2C1CC1` [nevirapine, reference compound]: the EC50 is 35 nM in the test on WT virus (NL4-3) (setting [4]); 0.04 µM with NL4-3 (WT) (Human immunodeficiency virus 1, NL43, MT4, Table 8, isolate N1.43); 0.04 µM in the test on NL4-3 (WT) (Human immunodeficiency virus 1, NL43, MT4, Table 9, isolate NL4.3); 4900 nM in the test on HIV-1 variant V179D (setting [5]); 200 nM with HIV-1 variant V179D (setting [6]); 0.2 µM in the test with HIV-1 variant L100I (Human immunodeficiency virus 1, MT4, Table 8, isolate 1.1001). Besides, the half-maximal effective concentration (EC50) in the test on HIV-1 variant L100I (Human immunodeficiency virus 1, MT4, Table 9, isolate L1001) was 0.2 µM; in the test with HIV-1 variant K101E (Human immunodeficiency virus 1, MT4, Table 8, isolate K101E) it was 1.1 µM; with HIV-1 variant K101E (Human immunodeficiency virus 1, MT4, Table 9, isolate KIOIE), 1.1 µM; with HIV-1 variant Y188C (Human immunodeficiency virus 1, MT4, Table 8, isolate Y 188C), over 0.5 µM; in the test on HIV-1 variant Y188C (Human immunodeficiency virus 1, MT4, Table 9, isolate Y188C) it was over 0.5 µM; in the test on HIV-1 variant K103N (setting [5]) it was over 10 µM. Also, the concentration giving a half-maximal response (EC50) in the test on HIV-1 variant K103N (setting [6]) is over 10 µM; in test [1] (setting [5]), 3000 nM; in [1] (setting [6]) it was 3000 nM; with HIV-1 variant V106A (Human immunodeficiency virus 1, MT4, Table 8, isolate V 106A) it was over 10000 nM; in the test with HIV-1 variant V106A (Human immunodeficiency virus 1, MT4, Table 9, isolate V106A) it was over 10000 nM; in the test with HIV-1 variant L74V (Human immunodeficiency virus 1, MT4, Table 8, isolate 1.74V) it was 40 nM. The half-maximal effective concentration (EC50) with HIV-1 variant L74V (Human immunodeficiency virus 1, MT4, Table 9, isolate 1.74 V) is 40 nM; in the test with HIV-1 variant Y181C (setting [6]), 4.9 µM; in the test with HIV-1 variant V108I (Human immunodeficiency virus 1, MT4, Table 8, isolate V1081), 0.4 µM; in the test with HIV-1 variant V108I (Human immunodeficiency virus 1, MT4, Table 9, isolate V1081), 0.4 µM; in the test with HIV-1 variant A98G (Human immunodeficiency virus 1, MT4, Table 8, isolate A9SG), 800 nM; in the test with HIV-1 variant A98G (Human immunodeficiency virus 1, MT4, Table 9, isolate A98G) it was 800 nM. Besides, the concentration giving a half-maximal response (EC50) in the test with HIV-1 isolate 4xAZT (setting [5]) and in the test with HIV-1 isolate 4xAZT (setting [6]) was over 500 nM throughout. Also, in the test with HIV-1 variant K103N (result in words, cytopathic cell killing assay), the “activity against the K103N mutation / isolate” value is listed as “ineffective”.
For the compound `Fc1cccc(F)c1Cn1c(-c2c(F)cccc2F)nc2c(Br)cccc21` [compound 54, 4-bromo-1-(2,6-difluorobenzyl)-2-(2,6-difluorophenyl)benzimidazole], the EC50 in the test with WT virus (NL4-3) (Human immunodeficiency virus 1, NL43, CEM-SS, Table 7, concentration reducing cell killing or virus production by 50%, HIV-1 WT) is 370 nM; in the test on WT virus (NL4-3) (setting [4]), 370 nM; with NL4-3 (WT) (Human immunodeficiency virus 1, NL43, MT4, Table 10 (values in µM), isolate NL4-3 (WT)), 0.5 µM; in the test on HIV-1 variant L100I (Human immunodeficiency virus 1, MT4, Table 10 (values in µM), isolate L1001), 0.5 µM; in the test with HIV-1 variant K101E (Human immunodeficiency virus 1, MT4, Table 10 (values in µM), isolate K101E), over 20 µM; in the test on HIV-1 variant Y188C (Human immunodeficiency virus 1, MT4, Table 10 (values in µM), isolate Y188C), 3.7 µM. Further, the half-maximal effective concentration (EC50) in the test with HIV-1 variant K103N (setting [7]) was over 20 µM; with HIV-1 variant Y181C (setting [7]), 10.7 µM; in the test with HIV-1 variant V108I (Human immunodeficiency virus 1, MT4, Table 10 (values in µM), isolate V108l), 4.2 µM. The inhibition at 1 µM turned out to be 78% at HIV-1 WT RT (Table 6, WT HIV-1 RT, 1 µM drug, average of two experiments done in triplicates, read-out: %Inhibn (1µM)) and 78% at HIV-1 WT RT (Table 7, WT HIV-1 RT, 1 µM drug, read-out: %inhibn (1µM)). The IC50 at HIV-1 WT RT (Table 7, HIV-1 WT RT) came out at 1610 nM; at HIV-1 WT RT (Table 11, WT RT) it was 1610 nM.
